# In ChEMBL document CHEMBL1806368 (Bioorg Med Chem Lett, 2011):
# Columns and labels:
# [1] = Aqueous solubility of the compound at pH 7.4; assay type: physicochemical; details: buffer
# [2] = Plasma concentration in human U87MG cells xenografted mouse at 50 mg/kg, iv after 24 hrs; assay type: ADME, organism-based, U-87MG ATCC; design: dose 50 mg/kg, route intravenous
# [3] = Plasma concentration in human NCI-H1975 cell xenografted mouse at 25 mg/kg, iv after 24 hrs; assay type: ADME, organism-based; design: dose 25 mg/kg, route intravenous
# [4] = Plasma concentration in human U87MG cells xenografted mouse at 50 mg/kg, po after 24 hrs; assay type: ADME, organism-based, U-87MG ATCC; design: dose 50 mg/kg, route oral
# [5] = Plasma concentration in human U87MG cells xenografted mouse at 50 mg/kg, iv after 6 hrs; assay type: ADME, organism-based, U-87MG ATCC; design: dose 50 mg/kg, route intravenous
# [6] = Drug level in tumor in human U87MG cells xenografted mouse at 50 mg/kg, iv after 6 hrs; assay type: ADME, organism-based, Neoplasm, U-87MG ATCC; design: dose 50 mg/kg, route intravenous; details: read-out: Drug uptake
# [7] = Drug level in tumor in human NCI-H1975 cell xenografted mouse at 25 mg/kg, iv after 24 hrs; assay type: ADME, organism-based, Neoplasm; design: dose 25 mg/kg, route intravenous; details: read-out: Drug uptake
# [8] = Tmax in CD1 mouse at 20 mg/kg, po; assay type: ADME, organism-based; design: dose 20 mg/kg, route oral; details: in vivo
# [9] = Bioavailability in CD1 mouse at 2 mg/kg, iv; assay type: ADME, organism-based; details: in vivo
# [10] = Drug level in tumor in human NCI-H1975 cell xenografted mouse at 25 mg/kg, iv after 6 hrs; assay type: ADME, organism-based, Neoplasm; design: dose 25 mg/kg, route intravenous; details: read-out: Drug uptake
# [11] = Plasma concentration in human NCI-H1975 cell xenografted mouse at 25 mg/kg, iv after 6 hrs; assay type: ADME, organism-based; design: dose 25 mg/kg, route intravenous
# [12] = Drug level in tumor in human U87MG cells xenografted mouse at 50 mg/kg, po after 6 hrs; assay type: ADME, organism-based, Neoplasm, U-87MG ATCC; design: dose 50 mg/kg, route oral; details: read-out: Drug uptake
# [13] = Volume of distribution at steady state in CD1 mouse at 2 mg/kg, iv; assay type: ADME, organism-based; design: dose 2 mg/kg, route intravenous; details: in vivo, read-out: Vdss
# [14] = Drug level in tumor in human U87MG cells xenografted mouse at 50 mg/kg, po after 24 hrs; assay type: ADME, organism-based, Neoplasm, U-87MG ATCC; design: dose 50 mg/kg, route oral; details: read-out: Drug uptake
# [15] = AUC (0 to infinity) in CD1 mouse at 20 mg/kg, po; assay type: ADME, organism-based; design: time infinity, dose 20 mg/kg, route oral; details: plasma
# [16] = Plasma concentration in human U87MG cells xenografted mouse at 50 mg/kg, po after 6 hrs; assay type: ADME, organism-based, U-87MG ATCC; design: dose 50 mg/kg, route oral
# [17] = Drug level in tumor in human U87MG cells xenografted mouse at 50 mg/kg, iv after 24 hrs; assay type: ADME, organism-based, Neoplasm, U-87MG ATCC; design: dose 50 mg/kg, route intravenous; details: read-out: Drug uptake
# [18] = Cmax in CD1 mouse at 20 mg/kg, po; assay type: ADME, organism-based; design: dose 20 mg/kg, route oral; details: in vivo
# [19] = AUC (0 to infinity) in CD1 mouse at 2 mg/kg, iv; assay type: ADME, organism-based; design: time infinity, dose 2 mg/kg, route intravenous; details: plasma
smiles,measurement,setting,value
Cc1c2c(n3c1CCN(C(=O)[C@H]1CCCN1)C[C@@H](C)[C@H](C)Nc1cc-3ccc1C(N)=O)CC(C)(C)CC2=O,solubility,[1]; read-out: solubility,> 100 µg/mL
Cc1c2c(n3c1CCCNC[C@H](C)Nc1cc-3ccc1C(N)=O)CC(C)(C)CC2=O,solubility,[1]; read-out: solubility,> 100 µg/mL
Cc1c2c(n3c1CCN(C(=O)[C@@H](O)C(C)C)C[C@@H](C)[C@H](C)Nc1cc-3ccc1C(N)=O)CC(C)(C)CC2=O,solubility,[1]; read-out: solubility,30 µg/mL
Cc1c2c(n3c1CCN(C(=O)[C@@H]1CCCN1)C[C@@H](C)[C@H](C)Nc1cc-3ccc1C(N)=O)CC(C)(C)CC2=O,solubility,[1]; read-out: solubility,> 100 µg/mL
Cc1c2c(n3c1CCN(C(=O)CN)C[C@@H](C)[C@H](C)Nc1cc-3ccc1C(N)=O)CC(C)(C)CC2=O,solubility,[1]; read-out: solubility,46 µg/mL
CC(=O)N1CCc2c(C)c3c(n2-c2ccc(C(N)=O)c(c2)N[C@@H](C)[C@H](C)C1)CC(C)(C)CC3=O,solubility,[1]; read-out: solubility,38 µg/mL
Cc1c2c(n3c1CCN(C(=O)C1(N)CC1)C[C@@H](C)[C@H](C)Nc1cc-3ccc1C(N)=O)CC(C)(C)CC2=O,solubility,[1]; read-out: solubility,7 µg/mL
CC[C@H](N)C(=O)N1CCc2c(C)c3c(n2-c2ccc(C(N)=O)c(c2)N[C@@H](C)[C@H](C)C1)CC(C)(C)CC3=O,solubility,[1]; read-out: solubility,> 100 µg/mL
Cc1c2c(n3c1CCN(C(=O)C(C)(C)N)C[C@@H](C)[C@H](C)Nc1cc-3ccc1C(N)=O)CC(C)(C)CC2=O,solubility,[1]; read-out: solubility,> 100 µg/mL
Cc1c2c(n3c1CCN(C(=O)[C@H](C)N)CC[C@H](C)Nc1cc-3ccc1C(N)=O)CC(C)(C)CC2=O,solubility,[1]; read-out: solubility,> 100 µg/mL
Cc1c2c(n3c1CCN(C(=O)[C@H](C)O)C[C@@H](C)[C@H](C)Nc1cc-3ccc1C(N)=O)CC(C)(C)CC2=O,solubility,[1]; read-out: solubility,60 µg/mL
Cc1c2c(n3c1CCN(C(=O)[C@@H](N)C(C)C)C[C@@H](C)[C@H](C)Nc1cc-3ccc1C(N)=O)CC(C)(C)CC2=O,solubility,[1]; read-out: solubility,> 100 µg/mL
Cc1c2c(n3c1CCN(C(=O)C1(N)CCCC1)C[C@@H](C)[C@H](C)Nc1cc-3ccc1C(N)=O)CC(C)(C)CC2=O,solubility,[1]; read-out: solubility,53 µg/mL
Cc1c2c(n3c1CCN(C(=O)[C@@H]1C[C@H](F)CN1)C[C@@H](C)[C@H](C)Nc1cc-3ccc1C(N)=O)CC(C)(C)CC2=O,solubility,[1]; read-out: solubility,100 µg/mL
Cc1c2c(n3c1CCCN1CCC[C@H]1CNc1cc-3ccc1C(N)=O)CC(C)(C)CC2=O,solubility,[1],2324 µg/mL
Cc1c2c(n3c1CCN(C(=O)[C@H](C)N)C[C@@H](C)[C@H](C)Nc1cc-3ccc1C(N)=O)CC(C)(C)CC2=O,concentration at 24 h,[2],45 ng/mL
same,solubility,[1]; read-out: solubility,10 µg/mL
same,concentration at 24 h,[3],9 ng/mL
same,concentration at 24 h,[4],6 ng/mL
same,concentration at 6 h,[5],102 ng/mL
same,concentration at 6 h,[6],967 ng/g
same,concentration at 24 h,[7],910 ng/g
same,Tmax,[8],1 h
same,bioavailability,[9],4%
same,concentration at 6 h,[10],693 ng/g
same,concentration at 6 h,[11],36 ng/mL
same,concentration at 6 h,[12],309 ng/g
same,Vd,[13],30 L/kg
same,concentration at 24 h,[14],242 ng/g
same,AUC(0-inf),[15],234 ng·h/mL
same,concentration at 6 h,[16],53 ng/mL
same,concentration at 24 h,[17],772 ng/g
same,Cmax,[18],22 ng/mL
same,AUC(0-inf),[19],542 ng·h/mL
